# Laboratory results taken from paper PMC10006169, “A phase I trial of LXS196, a protein kinase C (PKC) inhibitor, for metastatic uveal melanoma” (British Journal of Cancer, 2023).
# Read-outs that look alike come from different tables or passages of the source.
# Assay: Plasma pharmacokinetics (LC-MS/MS)
# Assay type: in vivo, human
# Settings: human, plasma, oral; for Tmax: read-out: Tmax, Median (Min, max); for concentration at 15 day: read-out: Cmin, Median (Min, max)
# Method: In the dose escalation part of the study, PK samples were collected at various pre- and post-dose time points on C1D1, D2, D3, D15 and D16. Drug concentrations were assessed using a validated liquid chromatography-tandem mass spectrometry assay.
structure (smiles),measurement,setting,value
CC1(N)CCN(c2cccnc2NC(=O)c2nc(-c3ncccc3C(F)(F)F)cnc2N)CC1 [LXS196],Tmax,"100 mg, C1D1, 100 mg QD, n=3",1 h
same,AUC(0-t),"100 mg, C1D15, 100 mg QD, n=2, read-out: AUC0-t, Geo-mean",10400 ng·h/mL
same,AUC(0-t),"100 mg, C1D15, 100 mg QD, n=2, read-out: AUC0-t, Mean (SD)",10400 ng·h/mL
same,AUC(0-t),"100 mg, C1D15, 100 mg QD, n=2, read-out: AUC0-t, Median (Min, max)",10400 ng·h/mL
same,Cmax,"100 mg, C1D15, 100 mg QD, n=3, read-out: Cmax, Geo-mean",1180 ng/mL
same,Cmax,"100 mg, C1D15, 100 mg QD, n=3, read-out: Cmax, Mean (SD)",1190 ng/mL
same,Cmax,"100 mg, C1D15, 100 mg QD, n=3, read-out: Cmax, Median (Min, max)",1260 ng/mL
same,concentration at 15 day,"100 mg, C1D15, 100 mg QD, n=3",112 ng/mL
same,Tmax,"100 mg, C1D15, 100 mg QD, n=3",1 h
same,AUC(0-t),"200 mg, C1D1, 200 mg BID, n=6, read-out: AUC0-t, Geo-mean",15400 ng·h/mL
same,AUC(0-t),"200 mg, C1D1, 200 mg BID, n=6, read-out: AUC0-t, Mean (SD)",18600 ng·h/mL
same,AUC(0-t),"200 mg, C1D1, 200 mg BID, n=6, read-out: AUC0-t, Median (Min, max)",13300 ng·h/mL
same,AUC(0-inf),"200 mg, C1D1, 200 mg BID, n=6, read-out: AUCinf, Geo-mean",24000 ng·h/mL
same,AUC(0-inf),"200 mg, C1D1, 200 mg BID, n=6, read-out: AUCinf, Mean (SD)",29200 ng·h/mL
same,AUC(0-inf),"200 mg, C1D1, 200 mg BID, n=6, read-out: AUCinf, Median (Min, max)",21600 ng·h/mL
same,Cmax,"200 mg, C1D1, 200 mg BID, n=6, read-out: Cmax, Geo-mean",3270 ng/mL
same,Cmax,"200 mg, C1D1, 200 mg BID, n=6, read-out: Cmax, Mean (SD)",4070 ng/mL
same,Cmax,"200 mg, C1D1, 200 mg BID, n=6, read-out: Cmax, Median (Min, max)",2950 ng/mL
same,half-life,"200 mg, C1D1, 200 mg BID, n=6, read-out: T1/2, Geo-mean (converted)",13 h
same,half-life,"200 mg, C1D1, 200 mg BID, n=6, read-out: T1/2, Mean (SD) (converted)",13.1 h
same,half-life,"200 mg, C1D1, 200 mg BID, n=6, read-out: T1/2, Median (Min, max) (converted)",13.1 h
same,Tmax,"200 mg, C1D1, 200 mg BID, n=6",0.525 h
same,AUC(0-t),"200 mg, C1D1, 200 mg QD, n=3, read-out: AUC0-t, Geo-mean",18700 ng·h/mL
same,AUC(0-t),"200 mg, C1D1, 200 mg QD, n=3, read-out: AUC0-t, Mean (SD)",19100 ng·h/mL
same,AUC(0-t),"200 mg, C1D1, 200 mg QD, n=3, read-out: AUC0-t, Median (Min, max)",18900 ng·h/mL
same,AUC(0-inf),"200 mg, C1D1, 200 mg QD, n=3, read-out: AUCinf, Geo-mean",21300 ng·h/mL
same,AUC(0-inf),"200 mg, C1D1, 200 mg QD, n=3, read-out: AUCinf, Mean (SD)",21600 ng·h/mL
same,AUC(0-inf),"200 mg, C1D1, 200 mg QD, n=3, read-out: AUCinf, Median (Min, max)",22600 ng·h/mL
same,Cmax,"200 mg, C1D1, 200 mg QD, n=3, read-out: Cmax, Geo-mean",3410 ng/mL
same,Cmax,"200 mg, C1D1, 200 mg QD, n=3, read-out: Cmax, Mean (SD)",3540 ng/mL
same,Cmax,"200 mg, C1D1, 200 mg QD, n=3, read-out: Cmax, Median (Min, max)",2860 ng/mL
same,half-life,"200 mg, C1D1, 200 mg QD, n=3, read-out: T1/2, Geo-mean (converted)",8.36 h
same,half-life,"200 mg, C1D1, 200 mg QD, n=3, read-out: T1/2, Mean (SD) (converted)",8.52 h
same,half-life,"200 mg, C1D1, 200 mg QD, n=3, read-out: T1/2, Median (Min, max) (converted)",8.44 h
same,Tmax,"200 mg, C1D1, 200 mg QD, n=3",1 h
same,AUC(0-t),"200 mg, C1D15, 200 mg BID, n=5, read-out: AUC0-t, Geo-mean",15400 ng·h/mL
same,AUC(0-t),"200 mg, C1D15, 200 mg BID, n=5, read-out: AUC0-t, Mean (SD)",16900 ng·h/mL
same,AUC(0-t),"200 mg, C1D15, 200 mg BID, n=5, read-out: AUC0-t, Median (Min, max)",16000 ng·h/mL
same,Cmax,"200 mg, C1D15, 200 mg BID, n=5, read-out: Cmax, Geo-mean",2470 ng/mL
same,Cmax,"200 mg, C1D15, 200 mg BID, n=5, read-out: Cmax, Mean (SD)",2910 ng/mL
same,Cmax,"200 mg, C1D15, 200 mg BID, n=5, read-out: Cmax, Median (Min, max)",2540 ng/mL
same,concentration at 15 day,"200 mg, C1D15, 200 mg BID, n=5",883 ng/mL
same,Tmax,"200 mg, C1D15, 200 mg BID, n=5",1 h
same,AUC(0-t),"200 mg, C1D15, 200 mg QD, n=3, read-out: AUC0-t, Geo-mean",12900 ng·h/mL
same,AUC(0-t),"200 mg, C1D15, 200 mg QD, n=3, read-out: AUC0-t, Mean (SD)",13200 ng·h/mL
same,AUC(0-t),"200 mg, C1D15, 200 mg QD, n=3, read-out: AUC0-t, Median (Min, max)",13800 ng·h/mL
same,Cmax,"200 mg, C1D15, 200 mg QD, n=3, read-out: Cmax, Geo-mean",2490 ng/mL
same,Cmax,"200 mg, C1D15, 200 mg QD, n=3, read-out: Cmax, Mean (SD)",2500 ng/mL
same,Cmax,"200 mg, C1D15, 200 mg QD, n=3, read-out: Cmax, Median (Min, max)",2620 ng/mL
same,concentration at 15 day,"200 mg, C1D15, 200 mg QD, n=3",149 ng/mL
same,Tmax,"200 mg, C1D15, 200 mg QD, n=3",1 h
same,AUC(0-inf),"300 mg, C1D1, 300 mg BID, n=16, read-out: AUCinf, Geo-mean",30900 ng·h/mL
same,AUC(0-inf),"300 mg, C1D1, 300 mg BID, n=16, read-out: AUCinf, Mean (SD)",35200 ng·h/mL
same,AUC(0-inf),"300 mg, C1D1, 300 mg BID, n=16, read-out: AUCinf, Median (Min, max)",28400 ng·h/mL
same,half-life,"300 mg, C1D1, 300 mg BID, n=16, read-out: T1/2, Geo-mean (converted)",11.9 h
same,half-life,"300 mg, C1D1, 300 mg BID, n=16, read-out: T1/2, Mean (SD) (converted)",12.1 h
same,half-life,"300 mg, C1D1, 300 mg BID, n=16, read-out: T1/2, Median (Min, max) (converted)",11.8 h
